The target in experiment [1] is T1, DDB1DB/DCAF15 and RBM39 R1R2 complex (Homo sapiens, UniProt Q14498+Q66K64).
T1 construct: Amino acids 150 to 331 of RBM39 were cloned into pGEX4T3; GST (from vector pGEX4T3); TEV cleavage site (N); made in house; host or cells: DDB1DB/His-DCAF15: baculovirus/Sf9 co-expression; RBM39 R1R2: E. coli (pGEX4T3)
Description: DCAF15 RBM39 Complex Formation Assay (FRET). Format: binding. The following applies: FRET ratio Em 665/Em 615, incubated overnight at 4° C. An outline of the steps: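 Ternary complex formation read by TR-FRET (Em 665/615, excitation 340 nm) after overnight incubation at 4° C of 20 nM baculovirus DDB1DB/His-DCAF15 and 50 nM E. coli RBM39 RRM1-RRM2 FLAG fragment with 14-point, 3-fold compound dilutions from 1 μM; EC50 from 4-parameter fit.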

In experiment [2] the test system is HCT116 human colorectal carcinoma cells. Briefly: CellTiter-Glo Luminescent Cell Viability Assay. Format: cell-based. As to conditions: HCT-116, 72 h, 3 days. A digest of the protocol:
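CellTiter-Glo luminescence gave viability after 3 days of compound exposure in HCT116 cells grown in DMEM/10% FBS. Final concentrations ran from 5 to 0.0002 […] in 1:3 steps, each in triplicate, with IC50 derived from the curves.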
(In general: ATP-based viability assays read luminescence as a measure of living cells.)

Where only a bound is given, the exact number is not on record here.

The IC50 is the concentration at which inhibition is half-maximal. For orientation: EC50 means the concentration giving half of the maximal effect.

T1 sequence (Q66K64 whole entry, the tested form may be a part): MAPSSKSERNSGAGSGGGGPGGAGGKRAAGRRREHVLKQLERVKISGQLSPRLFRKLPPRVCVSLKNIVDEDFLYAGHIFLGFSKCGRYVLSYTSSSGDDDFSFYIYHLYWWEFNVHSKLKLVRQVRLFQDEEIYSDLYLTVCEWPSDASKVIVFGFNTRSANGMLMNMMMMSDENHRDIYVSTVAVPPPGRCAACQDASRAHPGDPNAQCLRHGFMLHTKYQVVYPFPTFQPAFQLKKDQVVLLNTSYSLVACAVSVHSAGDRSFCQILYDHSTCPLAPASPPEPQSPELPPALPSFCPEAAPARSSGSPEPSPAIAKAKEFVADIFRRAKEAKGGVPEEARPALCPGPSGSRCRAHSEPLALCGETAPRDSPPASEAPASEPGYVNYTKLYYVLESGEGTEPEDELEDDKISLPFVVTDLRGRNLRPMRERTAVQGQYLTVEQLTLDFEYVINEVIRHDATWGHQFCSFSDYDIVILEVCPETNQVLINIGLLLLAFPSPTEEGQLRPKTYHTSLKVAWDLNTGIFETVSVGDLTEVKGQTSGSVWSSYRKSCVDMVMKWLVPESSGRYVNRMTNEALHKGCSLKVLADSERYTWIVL
T1 sequence (Q14498 150-331): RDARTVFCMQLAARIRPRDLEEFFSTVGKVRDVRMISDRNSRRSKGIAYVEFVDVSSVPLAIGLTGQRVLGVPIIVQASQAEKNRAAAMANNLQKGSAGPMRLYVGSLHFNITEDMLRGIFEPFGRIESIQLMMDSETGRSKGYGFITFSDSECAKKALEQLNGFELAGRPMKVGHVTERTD
T1 sequence (Q16531 with tags, fused parts or gaps DEL396-708 partner): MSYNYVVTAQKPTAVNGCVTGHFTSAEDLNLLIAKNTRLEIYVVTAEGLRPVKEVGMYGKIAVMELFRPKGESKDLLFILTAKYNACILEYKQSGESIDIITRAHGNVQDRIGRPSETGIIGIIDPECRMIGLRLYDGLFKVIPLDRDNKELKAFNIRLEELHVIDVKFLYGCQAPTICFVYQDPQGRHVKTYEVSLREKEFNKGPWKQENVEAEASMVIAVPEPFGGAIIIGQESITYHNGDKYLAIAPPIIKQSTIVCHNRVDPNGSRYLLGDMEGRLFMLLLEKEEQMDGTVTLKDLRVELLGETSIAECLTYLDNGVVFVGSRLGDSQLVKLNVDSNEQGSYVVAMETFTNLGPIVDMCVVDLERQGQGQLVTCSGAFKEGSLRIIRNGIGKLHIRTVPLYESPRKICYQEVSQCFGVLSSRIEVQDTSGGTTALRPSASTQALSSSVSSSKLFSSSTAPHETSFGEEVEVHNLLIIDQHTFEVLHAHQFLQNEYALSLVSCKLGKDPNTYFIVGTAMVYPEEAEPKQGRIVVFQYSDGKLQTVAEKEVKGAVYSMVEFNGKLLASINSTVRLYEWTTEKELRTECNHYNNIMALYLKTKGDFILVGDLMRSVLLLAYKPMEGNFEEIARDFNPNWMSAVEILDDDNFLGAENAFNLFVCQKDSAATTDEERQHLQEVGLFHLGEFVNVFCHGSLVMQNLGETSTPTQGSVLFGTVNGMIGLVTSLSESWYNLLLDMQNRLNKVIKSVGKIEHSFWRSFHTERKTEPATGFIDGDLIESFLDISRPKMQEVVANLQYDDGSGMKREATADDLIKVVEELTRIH

In the case of `Cc1ccc(NS(=O)(=O)c2cnn(C)c2N)c2[nH]nc(C#N)c12` [Compound 304, 5-amino-N-(3-cyano-4-methyl-1H-indazol-7-yl)-1-methyl-pyrazol-4-sulfonamide], the IC50 in experiment [1] was under 0.25 µM. Moreover, the EC50 in experiment [2] is under 0.25 µM.
With `Cc1ccc(NS(=O)(=O)c2cnn(CCC#N)c2)c2[nH]cc(C#N)c12` [Compound 77, 1-(2-Cyanoethyl)-N-(3-cyano-4-methyl-1H-indol-7-yl)pyrazole-4-sulfonamide], the half-inhibitory concentration (IC50) in experiment [1] is under 0.25 µM. In addition, the 50% effective concentration (EC50) in experiment [2] is under 0.25 µM.
On to `CC(C)(O)Cn1ncc(S(=O)(=O)Nc2ccc(Cl)c3c(C#N)c[nH]c23)c1F` [Compound 188, N-(4-chloro-3-cyano-1H-indol-7-yl)-5-fluoro-1-(2-hydroxy-2-methyl-propyl)pyrazole-4-sulfonamide], for which the concentration for half-maximal inhibition (IC50) in experiment [1] is under 0.25 µM. In addition, in experiment [2], the 50% effective concentration (EC50) is 0.25 to 1 µM.
Take `Cc1ccc(NS(=O)(=O)c2cnn(C34CC(C3)C4)c2)c2[nH]cc(C#N)c12` [Compound 218, 1-(3-bicyclo[1.1.1]pentanyl)-N-(3-cyano-4-methyl-1H-indol-7-yl)pyrazole-4-sulfonamide]: in experiment [1], the IC50 was under 0.25 µM. Besides, the EC50 in experiment [2] lay within 0.25 to 1 µM.
For `N#Cc1c[nH]c2c(NS(=O)(=O)c3cnn(CC4(O)CCC4)c3)ccc(Cl)c12` [Compound 179, N-(4-chloro-3-cyano-1H-indol-7-yl)-1-[(1-hydroxycyclobutyl)methyl]pyrazole-4-sulfonamide], in that order: under 0.25 µM and 0.25 to 1 µM.
`Cc1ccc(NS(=O)(=O)c2cnn(C(C)CC(C)(C)O)c2)c2[nH]cc(C#N)c12` (centres unmarked) [Compound 242, N-(3-cyano-4-methyl-1H-indol-7-yl)-1-(3-hydroxy-1,3-dimethyl-butyl)pyrazole-4-sulfonamide]: the 50% inhibitory concentration (IC50) in experiment [1] is under 0.25 µM. Moreover, in experiment [2], the EC50 is under 0.25 µM.
As to `Cc1ccc(NS(=O)(=O)c2cnn([C@H]3CN(C(=O)OC(C)(C)C)C[C@H]3F)c2)c2[nH]cc(C#N)c12` [Compound 153, tert-butyl (3S,4R)-3-[4-[(3-cyano-4-methyl-1H-indol-7-yl)sulfamoyl]pyrazol-1-yl]-4-fluoro-pyrrolidine-1-carboxylate], the half-inhibitory concentration (IC50) in experiment [1] was under 0.25 µM. The EC50 in experiment [2] is over 1 µM.
The like results for `CC(C)(CO)n1ncc(S(=O)(=O)Nc2ccc(F)c3c(C#N)c[nH]c23)c1Cl` [Compound 245, 5-chloro-N-(3-cyano-4-fluoro-1H-indol-7-yl)-1-(2-hydroxy-1,1-dimethyl-ethyl)pyrazole-4-sulfonamide] were, in that order, under 0.25 µM and 0.25 to 1 µM.
The like results for `COC(=O)C(C)(C)n1cc(S(=O)(=O)Nc2ccc(Cl)c3c(C#N)c[nH]c23)cn1` [Compound 169, methyl 2-[4-[(4-chloro-3-cyano-1H-indol-7-yl)sulfamoyl]pyrazol-1-yl]-2-methyl-propanoate] were, in that order, under 0.25 µM and 0.25 to 1 µM.
For `COC(=O)Cn1cc(S(=O)(=O)Nc2ccc(C)c3c(C#N)c[nH]c23)cn1` [Compound 133, methyl 2-[4-[(3-cyano-4-methyl-1H-indol-7-yl)sulfamoyl]pyrazol-1-yl]acetate], in experiment [1], the IC50 was under 0.25 µM. Further, the EC50 in experiment [2] was over 1 µM.
For `Cc1ccc(NS(=O)(=O)c2cnn(CC(=O)N3CCCC3)c2)c2[nH]cc(C#N)c12` [Compound 142, N-(3-cyano-4-methyl-1H-indol-7-yl)-1-(2-oxo-2-pyrrolidin-1-yl-ethyl)pyrazole-4-sulfonamide], in that order: under 0.25 µM and over 1 µM.
Regarding `Cc1ccc(NS(=O)(=O)c2cnn(C(C)(C)C)c2)c2[nH]cc(C#N)c12` [Compound 94, 1-tert-butyl-N-(3-cyano-4-methyl-1H-indol-7-yl)pyrazole-4-sulfonamide], in experiment [1], the IC50 is under 0.25 µM. Also, in experiment [2], the EC50 is under 0.25 µM.
For `CC(C)(O)Cn1ncc(S(=O)(=O)Nc2ccc(F)c3c(C#N)c[nH]c23)c1Cl` [Compound 280, 5-chloro-N-(3-cyano-4-fluoro-1H-indol-7-yl)-1-(2-hydroxy-2-methyl-propyl)pyrazole-4-sulfonamide], the 50% inhibitory concentration (IC50) in experiment [1] was under 0.25 µM. For the same molecule, in experiment [2], the EC50 was over 1 µM.
Regarding `N#CC1(Cn2cc(S(=O)(=O)Nc3cccc4c(Cl)c[nH]c34)cn2)CC1` [Compound 52, N-(3-chloro-1H-indol-7-yl)-1-[(1-cyanocyclopropyl)methyl]pyrazole-4-sulfonamide], the IC50 in experiment [1] was under 0.25 µM. For the same molecule, the EC50 in experiment [2] lay within 0.25 to 1 µM.
For `O=S(=O)(Nc1cccc2c(Cl)c[nH]c12)c1cnn(C2CCOCC2)c1` [Compound 20, N-(3-chloro-1H-indol-7-yl)-1-tetrahydropyran-4-yl-pyrazole-4-sulfonamide], in that order: 0.25 to 1 µM and over 1 µM.
As to `CCn1ncc(S(=O)(=O)Nc2ccc(C)c3c(C#N)c[nH]c23)c1F` [Compound 102, N-(3-Cyano-4-methyl-1H-indol-7-yl)-1-ethyl-5-fluoro-pyrazole-4-sulfonamide], the IC50 in experiment [1] was under 0.25 µM. Further, in experiment [2], the EC50 was under 0.25 µM.
On to `Cc1ccc(NS(=O)(=O)c2cnn(C3COC3)c2F)c2[nH]cc(C#N)c12` [Compound 144, N-(3-cyano-4-methyl-1H-indol-7-yl)-5-fluoro-1-(oxetan-3-yl)pyrazole-4-sulfonamide], for which the IC50 in experiment [1] is under 0.25 µM. Besides, the EC50 in experiment [2] lay within 0.25 to 1 µM.
For `CCn1cc(S(=O)(=O)Nc2ccc(C)c3c(C#N)c[nH]c23)c(N)n1` [Compound 290, 3-amino-N-(3-cyano-4-methyl-1H-indol-7-yl)-1-ethyl-pyrazole-4-sulfonamide], in that order: under 0.25 µM and under 0.25 µM.
The like results for `O=S(=O)(Nc1cccc2c(Cl)c[nH]c12)c1cnn(C2CCC2)c1` [Compound 47, N-(3-chloro-1H-indol-7-yl)-1-cyclobutyl-pyrazole-4-sulfonamide] were, in that order, under 0.25 µM and 0.25 to 1 µM.
For `Cc1ccc(NS(=O)(=O)c2cnn(CC3CC3(F)F)c2)c2[nH]cc(C#N)c12` (centres unmarked) [Compound 79, N-(3-cyano-4-methyl-1H-indol-7-yl)-1-[(2,2-difluorocyclopropyl)methyl]pyrazole-4-sulfonamide], in that order: under 0.25 µM and 0.25 to 1 µM.
With `[2H]C([2H])([2H])n1cc(S(=O)(=O)Nc2ccc(Cl)c3c(C#N)c[nH]c23)cn1` [Compound 135, N-(4-chloro-3-cyano-1H-indol-7-yl)-1-(trideuteriomethyl)pyrazole-4-sulfonamide], in experiment [1], the IC50 was under 0.25 µM. In experiment [2], the EC50 was under 0.25 µM.
In the case of `Cc1ccc(NS(=O)(=O)c2cnn([C@H](C)CO)c2N)c2[nH]cc(C#N)c12` [Compound 303, 5-amino-N-(3-cyano-4-methyl-1H-indol-7-yl)-1-[(1R)-2-hydroxy-1-methyl-ethyl]pyrazole-4-sulfonamide], in experiment [1], the concentration for half-maximal inhibition (IC50) is under 0.25 µM. Besides, in experiment [2], the concentration for a half-maximal effect (EC50) was under 0.25 µM.
For the molecule `Cc1ccc(NS(=O)(=O)c2cnn(CCC(C)(C)O)c2)c2[nH]cc(C#N)c12` [Compound 221, N-(3-cyano-4-methyl-1H-indol-7-yl)-1-(3-hydroxy-3-methyl-butyl)pyrazole-4-sulfonamide], the half-maximal inhibitory concentration (IC50) in experiment [1] was under 0.25 µM. Besides, the concentration for a half-maximal effect (EC50) in experiment [2] is under 0.25 µM.
For `C[C@H]([C@@H](C)O)n1cc(S(=O)(=O)Nc2ccc(Cl)c3c(C#N)c[nH]c23)cn1` [Compound 286, N-(4-chloro-3-cyano-1H-indol-7-yl)-1-[(1R,2R)-2-hydroxy-1-methyl-propyl]pyrazole-4-sulfonamide], in experiment [1], the IC50 is under 0.25 µM. The EC50 in experiment [2] was 0.25 to 1 µM.
With `Cn1cc(S(=O)(=O)Nc2ccc(C(F)(F)F)c3cc[nH]c23)cn1` [Compound 96, 1-methyl-N-[4-(trifluoromethyl)-1H-indol-7-yl]pyrazole-4-sulfonamide], in experiment [1], the IC50 was in the range of 0.25 to 1 µM. Besides, the EC50 in experiment [2] is over 1 µM.
For `C[C@H](CF)n1cc(S(=O)(=O)Nc2ccc(F)c3c(C#N)c[nH]c23)cn1` [Compound 225, N-(3-cyano-4-fluoro-1H-indol-7-yl)-1-[(1R)-2-fluoro-1-methyl-ethyl]pyrazole-4-sulfonamide], in that order: under 0.25 µM and 0.25 to 1 µM.
For the molecule `CC(C)(O)Cn1ncc(S(=O)(=O)Nc2ccc(Cl)c3c(C#N)c[nH]c23)c1N` [Compound 289, 5-amino-N-(4-chloro-3-cyano-1H-indol-7-yl)-1-(2-hydroxy-2-methyl-propyl)pyrazole-4-sulfonamide], the 50% inhibitory concentration (IC50) in experiment [1] is under 0.25 µM. Besides, the EC50 in experiment [2] lay in the range of 0.25 to 1 µM.
As to `Cc1ccc(NS(=O)(=O)c2cnn(C3(CF)COC3)c2)c2[nH]cc(C#N)c12` [Compound 117, N-(3-cyano-4-methyl-1H-indol-7-yl)-1-[3-(fluoromethyl)oxetan-3-yl]pyrazole-4-sulfonamide], the half-inhibitory concentration (IC50) in experiment [1] was under 0.25 µM. In addition, in experiment [2], the concentration for a half-maximal effect (EC50) is under 0.25 µM.
For the molecule `C[C@H](O)Cn1cc(S(=O)(=O)Nc2ccc(Cl)c3c(C#N)c[nH]c23)cn1` [Compound 196, N-(4-chloro-3-cyano-1H-indol-7-yl)-1-[(2S)-2-hydroxypropyl]pyrazole-4-sulfonamide], the concentration for half-maximal inhibition (IC50) in experiment [1] was under 0.25 µM. In addition, the EC50 in experiment [2] lay within 0.25 to 1 µM.
With `O=S(=O)(Nc1cccc2c(Cl)c[nH]c12)c1cnn(CCF)c1` [Compound 35, N-(3-chloro-1H-indol-7-yl)-1-(2-fluoroethyl)pyrazole-4-sulfonamide], in experiment [1], the IC50 is under 0.25 µM. In addition, in experiment [2], the EC50 lay within 0.25 to 1 µM.
The like results for `N#Cc1c[nH]c2c(NS(=O)(=O)c3cnn(C4(CO)CCC4)c3)ccc(Cl)c12` [Compound 191, N-(4-chloro-3-cyano-1H-indol-7-yl)-1-[1-(hydroxymethyl)cyclobutyl]pyrazole-4-sulfonamide] were, in that order, under 0.25 µM and under 0.25 µM.

Values taken from US20250368627A1, “PYRAZOLESULFONAMIDES AS ANTITUMOR AGENTS” (Peloton Therapeutics, Inc., a fully owned subsidiary of …, priority 2019, published 2025).
